{"source": "patent US20060134300A1", "about": "“Nutritional supplement for caffeine-containing beverages” (priority 2004, published 2006)", "origin": "cited, not measured here", "key": {"rats": {"test_system": "rats", "conditions": "rat, in vivo"}, "[1]": {"test_system": "sympathetic nervous system", "conditions": "intraventricular administration"}, "[2]": {"test_system": "subjects put under stress", "conditions": "100 mg/kg, within an hour of ingesting"}, "[3]": {"conditions": "dose of 150 mg/kg, extended wakefulness"}, "[4]": {"test_system": "adrenaline and noradrenaline", "conditions": "triple dose of caffeine"}}, "data": [{"smiles": "NCCS(=O)(=O)O", "note": "[taurine, 2-aminoethanesulfonic acid]", "values": [{"measurement": "LD 50", "setting": "rats", "result": "greater than 5,000 mg/kg"}, {"measurement": "sympathetic nerve activity", "setting": "[1]", "result": "inhibited sympathetic nerve activity"}]}, {"smiles": "N[C@@H](Cc1ccc(O)cc1)C(=O)O", "note": "[tyrosine]", "values": [{"measurement": "cognitive performance", "setting": "[2]", "result": "improved their cognitive performance"}, {"measurement": "lapse probability on a high-event-rate vigilance task", "setting": "[3]", "result": "significant reduction"}, {"measurement": "performance decline on a psychomotor task", "setting": "[3]", "result": "significant amelioration"}]}, {"smiles": "Cn1c(=O)c2c(ncn2C)n(C)c1=O", "note": "[caffeine, 1,3,7-trimethylxanthine]", "values": [{"measurement": "catecholamines (adrenaline and noradrenaline)", "setting": "[4]", "result": "significantly increased"}]}]}
